# Literature values as cited in US20220387434A1, “COMBINATION OF A BTK INHIBITOR AND AN MDM2 INHIBITOR FOR CANCER TREATMENT” (QUOGUE IP HOLDINGS LLC, priority 2019, published 2022).
# Test system: lymphocytes
# Conditions: Ibr versus Veh (FIG. 3)
structure (smiles),measurement,value
"C=CC(=O)N1CCC[C@@H](n2nc(-c3ccc(Oc4ccccc4)cc3)c3c(N)ncnc32)C1 [Ibrutinib, 1-[(3R)-3-[4-amino-3-(4-phenoxyphenyl)pyrazolo[3,4-d]pyrimidin-1-yl]piperidin-1-yl]prop-2-en-1-one]",mobilization of lymphocytes into the peripheral circulation,mobilization
